No end group written: not given here.
How the values were obtained:
Type in all cases: in vivo
BALB/c mice [1] = assay: Prophylactic treatment in murine house dust mite driven model of allergic asthma (Example 5); conditions: for Increase of airway resistance (airway hyper responsiveness) / Decrease of pulmonary compliance: vs HDM challenged vehicle
Description: Treatment regime: Female 7-10 weeks old BALB/c mice were randomly allocated into 5study groups one day prior to study start and subcutaneously (SC) sensitized to house dust mite (100 μg HDM in 200 uL saline plus Freund's complete adjuvant in 0.9% saline). The mice were treated with hBD-2 orally and intranasally respectively at a dose of 1.2 mg/kg/day (0.4 mg/kg TID) starting on day 12 in the morning and continued TID at approximately 6 hours intervals. The last dose was administered on day 14 one hour prior to challenge. The total number of doses was 8 doses or a total of […] hBD-2.Mice were then intranasally (IN) challenged with HDM on day 14 (HDM 25 μg in 50 μL of saline) (FIG. 2).
(§1) Airway inflammation: At 48 hours post challenge, bronchoalveolar lavage was performed washing the lungs with 3 volumes of cold PBS (0.4; 0.3 and 0.3 mL, total 1 mL). Total and differential leucocyte cell counts were determined on an automated haematological analyser Sysmex XT-2000iV.
Lung function: Starting 48 hours after HDM challenge, measurements of lung resistance and lung compliance were carried out after methacholine challenge (3.125 MCH1; 6.25 MCH2; 12.5 MCH3 and 25 mg/mL MCH4) by anaesthetized, cannulated mice using DSI's Buxco Finepoint RC system. Data are represented as airway resistance at […] methacholine and as dose responsive curves. Lung sampling for cytokine analysis: After completion of every BAL, lungs were removed from the thorax, snap frozen in liquid nitrogen and stored frozen at −80 degrees Celsius until analysis of cytokine concentration of TNF-α, IL-4, IL-5, IL-6, IL-9, IL-13 and IL-33 in lung homogenate by ELISA.

BALB/c mice [2] = assay: Murine model of acute graft versus host disease, oral HD5 (Example 13)
Description: (§2) Treatment regime: 22 female BALB/c mice were irradiated with 4.5 Gy (2×498 sec) at intervals of at least 4 hours on day 0. Bone marrow was harvested: hind limbs harvested from 2 female WT C57BL/6 mice aseptically. Skeletal muscle was removed and epiphysis cut away. Lumen of bone flushed with PBS and cells pelleted and taken up. Harvest of T-cells: spleens from 2 female WT C57BL/6 mice were meshed through a […] cell strainer into a PBS filled dish. Cells were taken up in PBS and transferred into a 50 mL falcon tube and spun down. Cells were taken up in 1 mL PBS and 20 μL of CD4 microbead +20 μL CD8 microbeads per spleen added for incubation for 20 min at 4 degrees C. Cells were washed with PBS and applied to MACS separation in order to positively select CD4+ and CD8+ cells. Positively selected T-cells were counted and taken up. Transplantation: directly after the second irradiation, all WT BALB/c recipient mice were injected with 5×1.000.000 BM cells (50 μL) i.v. into the retroorbital venous plexus under isoflurane anesthesia. 22 BALB/c mice were treated with 1.2 mg of HD5/kg BW/day; 1.2 mg of hBD-2/kg BW/day or 100 μL of PBS per day vial oral gavage from day 0-10.
Survival was monitored for 60 days.

BALB/c mice [3] = assay: Murine model of acute graft versus host disease, oral hBD-2 versus cyclosporine (Example 12)
Description: as §2, with “regime: 20” for “regime: 22”, “anesthesia. 20” for “anesthesia. 22”, “of hBD2/kg BW/day (n=7); 50” for “of HD5/kg BW/day; 1.2”, “mg cyclosporine/kg BW on days 0, 3, 6 and 9 (n=7)” for “mg of hBD-2/kg BW/day”, “100 uL” for “100 μL of”, “gavage (n=6)” for “gavage”
The mice were weighed at regular intervals during the study and survival was monitored for 90 days.

BALB/c mice [4] = assay: Therapeutic intervention in murine house dust mite/Freund's complete adjuvant driven model of allergic asthma (Example 6); conditions: for Increase of airway resistance (AHR): vs HDM challenged vehicle
Description: Treatment regime: Female 7-10 weeks old BALB/c mice were randomly allocated into 6 study groups one day prior to study start and subcutaneously (SC) sensitized to house dust mite (100 μg HDM in 200 μL saline plus Freund's complete adjuvant in 0.9% saline). Mice were then intranasally (IN) challenged with HDM on day 14 (HDM 25 μg in 50 μL of saline). Dexamethasone was administered orally (1 mg/kg BID; 50 μL phosphate buffered saline (PBS)) on day 14. hBD-2 was administered IN or orally (1.7 mg/kg TID IN; 0.4 mg/kg TID IN; 0.4 mg/kg TID orally, 50 μL phosphate buffered saline) on day 14. The initial dose was administered 60 minutes prior to challenge, and the subsequent two doses approximately 6 hours apart (FIG. 3).
as §1
Data are represented as airway resistance at […] methacholine and as dose responsive curves. Lung sampling for cytokine analysis: After completion of every BAL, lungs were removed from the thorax, snap frozen in liquid nitrogen and stored frozen at −80 degrees Celsius until analysis of cytokine concentration of IL-1β, TNF-α, IL-6, IL-10 and IFNγ by ELISA.

[5] = intranasal administration, not statistically significantly different from the control
[6] = hBD-2 intranasal, both doses, dexamethasone 1 mg/kg BID orally

With “human beta defensin 2 (GIGDPVTCLKSGAICHPVFCPRRYKQIGTCGLPGTKCCKKP; ends and bridges not checked; cysteine pairing not given here; listed as Homo sapiens) [hBD-2]” the “Increase of airway resistance (airway hyper responsiveness)” value (BALB/c mice [1]; intranasal 0.4 mg/kg TID day 12 to day 14, 8 administrations) was “effectively inhibited increase of airway resistance”, the “Decrease of pulmonary compliance” value (BALB/c mice [1]; intranasal 0.4 mg/kg TID day 12 to day 14) was “effectively inhibited” and the “IL-4 concentration in lung tissue homogenate” value (BALB/c mice [1]; [5]) was “trend towards lowering”. For the same substance, the “IL-5 concentration in lung tissue homogenate” value (BALB/c mice [1]; [5]) was “trend towards lowering”, the “IL-6 concentration in lung tissue homogenate” value (BALB/c mice [1]; [5]) was “trend towards lowering” and the “IL-9 concentration in lung tissue homogenate” value (BALB/c mice [1]; [5]) was “trend towards lowering”. The “IL-13 concentration in lung tissue homogenate” value (BALB/c mice [1]; [5]) was “trend towards lowering”, the “TNF-α concentration in lung tissue homogenate” value (BALB/c mice [1]; [5]) was “trend towards lowering” and the “Increase of airway resistance (airway hyper responsiveness)” value (BALB/c mice [1]; oral 0.4 mg/kg TID day 12 to day 14, 8 administrations, 48 hours after HDM challenge) was “effectively inhibited increase of airway resistance”. The “Decrease of pulmonary compliance” value (BALB/c mice [1]; oral 0.4 mg/kg TID day 12 to day 14) was “effectively inhibited”, the “IL-4 concentration in lung tissue homogenate” value (BALB/c mice [1]; oral administration) was “complete normalization of cytokine concentrations” and the “IL-5 concentration in lung tissue homogenate” value (BALB/c mice [1]; oral administration) was “complete normalization of cytokine concentrations”. The “IL-6 concentration in lung tissue homogenate” value (BALB/c mice [1]; oral administration) was “complete normalization of cytokine concentrations”, the “IL-9 concentration in lung tissue homogenate” value (BALB/c mice [1]; oral administration) was “complete normalization of cytokine concentrations” and the “IL-13 concentration in lung tissue homogenate” value (BALB/c mice [1]; oral administration) was “complete normalization of cytokine concentrations”. The “TNF-α concentration in lung tissue homogenate” value (BALB/c mice [1]; oral administration) was “complete normalization of cytokine concentrations”, the “Neutrophil counts in BALF” value (BALB/c mice [1]; oral application, 48 hours post challenge) was “significantly inhibited neutrophil counts” and the “Animals that had died by day 60” value (BALB/c mice [2]; 1.2 mg/kg BW/day oral gavage day 0-10, HD5 group of 8, PBS six out of eight died) was “none”. The Mortality (BALB/c mice [2]; 22 mice, oral treatment for 10 days) was “significant reduction of mortality”, the Mortality (BALB/c mice [3]; 7 mice oral hBD-2 for 10 days, p=0.03) was “statistically significant reduction of mortality” and the “Weight loss following bone marrow transplantation” value (BALB/c mice [3]; compared with the PBS treated mice) was “lost statistically significantly less weight”. For the same substance, the “Animals that had died by day 90” value (BALB/c mice [3]; hBD2 1.2 mg/kg BW/day day 0-10 (n=7), cyclosporine 50 mg/kg BW on days 0, 3, 6 and 9 (n=7), PBS n=6, all but one died) was 1, the “Total cell count in BALF” value (BALB/c mice [4]; 48 hours post challenge, hBD-2 intranasal, both doses (0.4 mg/kg/day TID and 1.7 mg/kg/day TID), dexamethasone 1 mg/kg BID orally) was “significantly inhibited total, neutrophil and macrophage cell counts” and the “Eosinophil count in BALF” value (BALB/c mice [4]; [6]) was “trend towards lowering of eosinophils”. The “Macrophage count in BALF” value (BALB/c mice [4]; [6]) was “significantly inhibited total, neutrophil and macrophage cell counts”, the “Neutrophil count in BALF” value (BALB/c mice [4]; [6]) was “significantly inhibited total, neutrophil and macrophage cell counts” and the “TNF-α level in lung tissue homogenate” value (BALB/c mice [4]; intranasal hBD-2) was “not significantly different from the control”. The “Decrease of pulmonary compliance” value (BALB/c mice [4]; intranasal hBD-2 TID on day 14) was “effectively inhibited”, the “Increase of airway resistance (AHR)” value (BALB/c mice [4]; intranasal hBD-2 TID on day 14) was “effectively inhibited increase of airway resistance” and the “Decrease of pulmonary compliance” value (BALB/c mice [4]; oral hBD-2 0.4 mg/kg TID on day 14) was “effectively inhibited”. The “Increase of airway resistance (AHR)” value (BALB/c mice [4]; oral on day 14: hBD-2 0.4 mg/kg TID, dexamethasone 1 mg/kg BID) was “effectively inhibited increase of airway resistance” and the “TNF-α level in lung tissue homogenate” value (BALB/c mice [4]; oral: hBD-2 0.4 mg/kg TID, dexamethasone 1 mg/kg BID, vs HDM/vehicle control) was “significantly reduced TNF-α”.

Source: US20250009844A1, “MATURATION OF MUCOSAL DEFENSE AND GUT/LUNG FUNCTION IN THE PRETERM INFANT” (Novozymes A/S, priority 2017, published 2025)
